From US20230094227A1, “NOVEL FK506 DERIVATIVE AND COMPOSITION COMPRISING SAME FOR PROMOTING HAIR GROWTH” (SEOUL NATIONAL UNIVERSITY R&DB FOUNDATION, priority 2020, published 2023)
In brackets after ≈: the same amount, converted by molar mass.

System: CD4+ T cells
Assay: in vitro T-cell activity assay (CD4+ T cell proliferation by CTV intensity, flow cytometry)
Format: cell-based, B6J mice
Settings: CD3/CD28-activated mouse spleen CD4+ T cells, 72 hours culture; for IC50: Mus musculus, CD4+ T, 72 h, read-out: Immunosuppression IC50
Source text: The degree of decrease in immunosuppressive activity of the four novel compounds was investigated by using the conventional in vitro T-cell activity assay (J. Immunol. 143: 718-726, 1989). The division of CD4+ T cells is an indicator that an immune response is taking place, and when CD4+ T cells are stained with Cell Trace™ Violet (CTV) and the cells divide according to the immune response and the T cells proliferate, a phenomenon in which the CTV retention of each cell decreases appears, and thus, the degree of immunosuppressive activity was investigated using this as an indicator.
Single cells were isolated from the spleen of 6 to 8 week-old B6J mice, and CD4+ T cells were isolated using the MagniSort® Mouse CD4 T cell Enrichment Kit (eBioscience). CD4+ T cells were stained with Cell Trace™ Violet (CTV) Cell Proliferation Kit (Molecular Probes), and FK506 or the four novel compounds were added to a concentration of 0.01 ng/mL, 0.1 ng/mL, 1 ng/mL, 10 ng/mL, 100 ng/mL or […], and then, it was cultured for 72 hours. Dynabeads® Mouse T-Activator CD3/CD28 (Gibco) was used for T cell activation. As a control group, non-activated T cells were used. After culture, CTV intensity was analyzed by flow cytometry.

Structure (SMILES)	IC50	Immunosuppression IC50
CCC[C@@H]1/C=C(\C)C[C@H](C)C[C@H](OC)[C@H]2O[C@@](O)(CC(=O)N3CCC[C@H]3C(=O)O[C@H](/C(C)=C/[C@@H]3CC[C@@H](O)[C@H](O)C3)[C@H](C)[C@@H](O)CC1=O)[C@H](C)C[C@@H]2OC [9-deoxo-31-O-demethyl-36,37-dihydro-prolylFK506]	5.56 µg/mL (≈ 7.27 µM)	–
CCC[C@@H]1/C=C(\C)C[C@H](C)C[C@H](OC)[C@H]2O[C@@](O)(CC(=O)N3CCC[C@H]3C(=O)O[C@H](/C(C)=C/[C@@H]3CC[C@@H](O)[C@H](OC)C3)[C@H](C)[C@@H](O)CC1=O)[C@H](C)C[C@@H]2OC [9-deoxo-36,37-dihydro-prolylFK506]	3.09 µg/mL (≈ 3.97 µM)	–
CC[C@@H]1/C=C(\C)C[C@H](C)C[C@H](OC)[C@H]2O[C@@](O)(CC(=O)N3CCC[C@H]3C(=O)O[C@H](/C(C)=C/[C@@H]3CC[C@@H](O)[C@H](O)C3)[C@H](C)[C@@H](O)CC1=O)[C@H](C)C[C@@H]2OC [9-deoxo-prolylFK520]	–	3.2888 µg/mL
C=CC[C@@H]1/C=C(\C)C[C@H](C)C[C@H](OC)[C@H]2O[C@@](O)(C(=O)C(=O)N3CCCC[C@H]3C(=O)O[C@H](/C(C)=C/[C@@H]3CC[C@@H](O)[C@H](OC)C3)[C@H](C)[C@@H](O)CC1=O)[C@H](C)C[C@@H]2OC [FK506]	2.7e-05 µg/mL (≈ 3.36e-05 µM)	–
